Assay results taken from patent publication US9592260B2, “Cancer therapy with a parvovirus combined with an HDAC inhibitor” (priority 2010, dated 2017).

Assays:
AsPC-1 = experiment: LDH assay, H-1PV with or without VPA, PDAC cells; settings: AsPC-1 (printed AP-1), 72 hours, H-1PV at various MOI, FIG. 7
Method: (§1) APC-1 and Capan-1 cells were plated in 96 wells plates (2000 cells/well). After 16 hours, cell were infected with H-1PV at the indicated MOI and grown in the presence or absence of VPA for additional 72 hours. Cellular lysis was measured by LDH assay.
(§2) Parvovirus cytotoxicity was measured by evaluating the release of lactate dehydrogenase in the medium using the CytoTox 96 kit from Promega (Mannheim, Germany). The day before infection, 2000 cells were seeded per well in 96-well plate in 50 μl of culture medium. After 24 hours, cells were infected with 50 μl of serum-free medium containing H-1PV or treated with HDAC inhibitors in 7 replicates per condition. The day of measurement, 3 out of 7 wells were incubated for 30 minutes with lysis buffer to estimate the maximum LDH release under conditions of 100% lysis. Afterwards, the plate was centrifuged and 50 μl of supernatant were mixed with the substrate mix. The LDH enzyme catalyzes a colorimetric reaction that is indicative of the amount of enzyme released in the medium. After 30 minutes, the reaction was stopped and analyzed using the Elisa reader MultiScan at 492 nm.
(§3) Cells were seeded in 96 wells plate and then infected with various concentrations of H-1PV in the presence or absence of the HDACI Valproic acid (VPA).

Capan-1 = experiment: LDH assay, H-1PV with or without VPA, PDAC cells; settings: 72 hours, H-1PV at various MOI, FIG. 7
Method: as §1, §2, §3

[1] = test system: cervical carcinoma cell cultures (HeLa, CaSki, SiHa, CxCa); experiment: LDH assay, H-1PV with or without HDACI, statements over all cervical cultures; format: cell-based, human; settings: VPA 1 mM, 72 h, FIG. 5
Method: Cervical cancer derived cell lines (HeLa, CaSki, SiHa) and non-established cervical cancer cell cultures (CxCa) were infected with H-1PV at the indicated MOIs (pfu/cell) and grown for 72 h in the presence (grey bars) or absence (white bars) of VPA (1 mM). After incubation, cell lysis was evaluated by measuring the release of lactate dehydrogenase (LDH). Hatched bars at the right hand side of each chart show the minimal dose of H-1PV able to kill 90-100% of the cancer cells as monotherapy.
The sub-lethal dose of VPA boosted parvovirus-induced cell killing in a synergistic manner, increasing by up to 50-100%. […] Similar results were also obtained combining H-1PV with NaB, TSA or SaHa (Table 2).

HeLa established tumors = format: in vivo, nude rat; settings: VPA 100 mg/kg; compared with mock-treated controls
Source text: Data shown represents the average values with standard deviation bars.

**Q.** Which results are given for `CCCC(CCC)C(=O)O` [VPA, valproic acid]?
**A.** cell lysis / cytotoxicity (LDH assay) (AsPC-1): no effect; cell lysis / cytotoxicity (LDH assay) (Capan-1): no effect; effect on cellular growth when applied singly [1]: did not have any significant effect; tumour growth (HeLa established tumors): failed to impair tumour growth
